According to patent US8829007B2 (priority 2009, dated 2014):
Like-named read-outs stand apart in the source and are kept apart here.

Experiments:
[1] = tested on: A/PR/8/34 influenza virus; experiment: microbe, parasite or virus in culture; format: cell-based
[2] = tested on: influenza A virus (A/PR/8/34); experiment: microbe, parasite or virus in culture; format: cell-based
[3] = bDNA assay, A/PR/8/34 influenza virus replication in MDCK cells, class symbols, read-out: EC50 (mean all)
[4] = CPE assay, A/PR/8/34 infected MDCK cells, class symbols, read-out: IC50 (mean all)
[5] = Influenza A virus, PR/8, MDCK, bDNA assay, A/PR/8/34 influenza virus replication in MDCK cells, class symbols, read-out: EC50 (mean all)
[6] = Influenza A virus, PR/8, MDCK, CPE assay, A/PR/8/34 infected MDCK cells, class symbols, read-out: IC50 (mean all)
[7] = mean all, bDNA viral RNA in MDCK cells infected with A/PR/8/34, read-out: EC50
[8] = mean all, MDCK cells infected with A/PR/8/34, cell protection (CPE), read-out: IC50
[9] = Influenza A virus, PR/8, MDCK, mean all, bDNA viral RNA in MDCK cells infected with A/PR/8/34, read-out: EC50
[10] = Influenza A virus, PR/8, MDCK, mean all, MDCK cells infected with A/PR/8/34, cell protection (CPE), read-out: IC50
[11] = mean all, A/PR/8/34 influenza virus replication, bDNA, read-out: EC50

Compound | EC50 [1, 7] [µM] | IC50 [2, 8] [µM] | also measured
N#Cc1cnc2[nH]cc(-c3ncc(F)c(NC4CCCN(CC(N)=O)C4)n3)c2c1 (centres unmarked) [Compound 661] | – | – | EC50 [1, 3]: < 5 µM; IC50 [2, 4]: < 5 µM
Fc1cnc(-c2c[nH]c3ncc(Cl)cc23)nc1NC1CCCN(CC2CCCCO2)C1 (centres unmarked) [Compound 663] | – | – | EC50 [1, 3]: < 5 µM; IC50 [2, 4]: < 5 µM
N#CCN1CCC[C@H](Nc2nc(-c3c[nH]c4ncc(Cl)cc34)ncc2F)C1 [Compound 669] | – | – | EC50 [1, 5]: < 5 µM; IC50 [2, 6]: < 5 µM
CCOC(=O)C1=CC(Nc2nc(-c3c[nH]c4ncc(Cl)cc34)ncc2F)[C@@H](NC(C)=O)[C@H](OC(CC)CC)C1 (some centres unmarked) [Compound 670] | – | – | EC50 [1, 5]: > 3.3 µM; IC50 [2, 6]: > 10 µM
CCC(CC)O[C@@H]1CC(C(=O)O)=CC(Nc2nc(-c3c[nH]c4ncc(Cl)cc34)ncc2F)[C@H]1NC(C)=O (some centres unmarked) [Compound 671] | – | – | EC50 [1, 5]: > 3.3 µM; IC50 [2, 6]: > 10 µM
CC(C)(O)c1nc(-c2c[nH]c3ncc(Cl)cc23)nc(NC2CCCCC2C(=O)O)c1F (centres unmarked) [Compound 673] | < 5 | < 5 | –
Nc1nc(-c2c[nH]c3ncc(Cl)cc23)nc(NC2CCCCC2C(=O)O)c1F (centres unmarked) [Compound 674] | < 5 | < 5 | –
COC(=O)c1cnc2[nH]cc(-c3ncc(F)c(NC4CCCN(CC(N)=O)C4)n3)c2c1 (centres unmarked) [Compound 675] | > 3.3 | > 10 | –
Fc1cnc(-c2c[nH]c3ncc(Cl)cc23)nc1NC1CCCN(CC2CCCOC2)C1 (centres unmarked) [Compound 676] | < 5 | < 5 | –
CC1(C(=O)O)CCCCC1Nc1nc(-c2c[nH]c3ncc(Cl)cc23)ncc1F (centres unmarked) [Compound 677] | < 5 | < 5 | –
CC1(C(=O)O)CCCCC1Nc1nc(-c2c[nH]c3ncc(F)cc23)ncc1F (centres unmarked) [Compound 678] | < 5 | < 5 | –
CC(C)(O)C(=O)NC1CCCC(Nc2nc(-c3c[nH]c4ncc(Cl)cc34)ncc2F)C1 (centres unmarked) [Compound 681] | < 5 | < 5 | –
CC1(C(=O)NC2CCCC(Nc3nc(-c4c[nH]c5ncc(Cl)cc45)ncc3F)C2)CCCO1 (centres unmarked) [Compound 682] | < 5 | < 5 | –
CCC(=O)NC1CCCC(Nc2nc(-c3c[nH]c4ncc(Cl)cc34)ncc2F)C1 (centres unmarked) [Compound 683] | < 5 | < 5 | –
O=C(NC1CCCC(Nc2nc(-c3c[nH]c4ncc(Cl)cc34)ncc2F)C1)C1CC1 (centres unmarked) [Compound 684] | < 5 | < 5 | –
CC(C)C(=O)NC1CCCC(Nc2nc(-c3c[nH]c4ncc(Cl)cc34)ncc2F)C1 (centres unmarked) [Compound 685] | < 5 | < 5 | –
O=C(O)C1CCCCC1Nc1nc(-c2c[nH]c3ncc(Cl)cc23)nc(C(O)CO)c1F (centres unmarked) [Compound 687] | > 3.3 | < 5 | –
COC(=O)NC1CCCC(Nc2nc(-c3c[nH]c4ncc(Cl)cc34)nc(C(C)(C)C)c2F)C1 (centres unmarked) [Compound 688] | < 5 | < 5 | –
COP(=O)(CN1CCC[C@H](Nc2nc(-c3c[nH]c4ncc(Cl)cc34)ncc2F)C1)OC [Compound 690] | – | – | EC50 ([1]; Influenza A virus, PR/8, MDCK): < 5 µM; IC50 ([2]; Influenza A virus, PR/8, MDCK, read-out: IC50): < 5 µM
CC(C)(C)c1nc(-c2c[nH]c3ncc(Cl)cc23)nc(NC2CCCCC2(C)C(=O)O)c1F (centres unmarked) [Compound 691] | < 5 | < 5 | –
O=C(O)C1CCCC(Nc2nc(-c3c[nH]c4ncc(Cl)cc34)ncc2F)C1 (centres unmarked) [Compound 696] | < 5 | < 5 | –
CC(C)OC(=O)NC1CCCC(Nc2nc(-c3c[nH]c4ncc(Cl)cc34)ncc2F)C1 (centres unmarked) [Compound 697] | < 5 | < 5 | –
CCCOC(=O)NC1CCCC(Nc2nc(-c3c[nH]c4ncc(Cl)cc34)ncc2F)C1 (centres unmarked) [Compound 698] | < 5 | < 5 | –
CC(C)COC(=O)NC1CCCC(Nc2nc(-c3c[nH]c4ncc(Cl)cc34)ncc2F)C1 (centres unmarked) [Compound 699] | < 5 | < 5 | –
CCOC(=O)NC1CCCC(Nc2nc(-c3c[nH]c4ncc(Cl)cc34)ncc2F)C1 (centres unmarked) [Compound 700] | < 5 | < 5 | –

Compound | EC50 [1, 7] [µM] | IC50 [2, 8] [µM] | also measured
CC#CCOC(=O)NC1CCCC(Nc2nc(-c3c[nH]c4ncc(Cl)cc34)ncc2F)C1 (centres unmarked) [Compound 701] | < 5 | < 5 | –
C#CCOC(=O)NC1CCCC(Nc2nc(-c3c[nH]c4ncc(Cl)cc34)ncc2F)C1 (centres unmarked) [Compound 702] | < 5 | < 5 | –
COCC(=O)NC1CCCC(Nc2nc(-c3c[nH]c4ncc(F)cc34)ncc2F)C1 (centres unmarked) [Compound 703] | < 5 | < 5 | –
O=C(NC1CCCC(Nc2nc(-c3c[nH]c4ncc(F)cc34)ncc2F)C1)C1CCCCO1 (centres unmarked) [Compound 704] | < 5 | < 5 | –
COC(=O)NC1CCCC(Nc2nc(-c3c[nH]c4ncc(F)cc34)ncc2F)C1 (centres unmarked) [Compound 705] | < 5 | < 5 | –
COCC(=O)NC1CCCC(Nc2nc(-c3c[nH]c4ncc(Cl)cc34)nc(C(C)(C)O)c2F)C1 (centres unmarked) [Compound 715] | < 5 | < 5 | –
COC(=O)NC1CCCC(Nc2nc(-c3c[nH]c4ncc(Cl)cc34)nc(C(C)(C)O)c2F)C1 (centres unmarked) [Compound 716] | < 5 | < 5 | –
OCC(O)C[C@@]1(O)CCCC(Nc2nc(-c3c[nH]c4ncc(Cl)cc34)ncc2F)C1 (some centres unmarked) [Compound 718] | – | – | EC50 [1, 9]: < 5 µM; IC50 [2, 10]: < 5 µM
O=C(NCC1CC1)C1CCCC(Nc2nc(-c3c[nH]c4ncc(Cl)cc34)ncc2F)C1 (centres unmarked) [Compound 719] | < 5 | < 5 | –
COC1CN(C(=O)C2CCCC(Nc3nc(-c4c[nH]c5ncc(Cl)cc45)ncc3F)C2)C1 (centres unmarked) [Compound 720] | < 5 | < 5 | –
CCOC(=O)C(=O)N(C(=O)OC(C)(C)C)C1CC2CC(C(=O)OC)C1C2 (centres unmarked) [Compound 721] | < 5 | < 5 | –
CC(C)(C)C(=O)NC1CCCC(Nc2nc(-c3c[nH]c4ncc(Cl)cc34)ncc2F)C1 (centres unmarked) [Compound 723] | < 5 | < 5 | –
N#CCC(=O)NC1CCCC(Nc2nc(-c3c[nH]c4ncc(Cl)cc34)ncc2F)C1 (centres unmarked) [Compound 724] | < 5 | < 5 | –
CN(C)CC(=O)NC1CCCC(Nc2nc(-c3c[nH]c4ncc(Cl)cc34)ncc2F)C1 (centres unmarked) [Compound 725] | < 5 | < 5 | –
O=C(NC1CCCC(Nc2nc(-c3c[nH]c4ncc(Cl)cc34)ncc2F)C1)C1CCC1 (centres unmarked) [Compound 726] | < 5 | < 5 | –
CC(C)(C)CC(=O)NC1CCCC(Nc2nc(-c3c[nH]c4ncc(Cl)cc34)ncc2F)C1 (centres unmarked) [Compound 728] | < 5 | < 5 | –
O=C(CN1CCCCC1)NC1CCCC(Nc2nc(-c3c[nH]c4ncc(Cl)cc34)ncc2F)C1 (centres unmarked) [Compound 729] | < 5 | < 5 | –
O=C(CN1CCOCC1)NC1CCCC(Nc2nc(-c3c[nH]c4ncc(Cl)cc34)ncc2F)C1 (centres unmarked) [Compound 730] | < 5 | < 5 | –
O=C(O)C1CCC(Nc2nc(-c3c[nH]c4ncc(Cl)cc34)ncc2F)CC1 (centres unmarked) [Compound 731] | > 3.3 | > 10 | –
CNC(=O)C[C@]1(O)CCCC(Nc2nc(-c3c[nH]c4ncc(Cl)cc34)ncc2F)C1 (some centres unmarked) [Compound 751] | – | – | EC50 [1, 9]: < 5 µM; IC50 [2, 10]: < 5 µM
CCNC(=O)[C@]1(O)CCC[C@H](Nc2nc(-c3c[nH]c4ncc(Cl)cc34)ncc2F)C1 [Compound 779, (1S,3S)-3-[[2-(5-chloro-1H-pyrrolo[2,3-b]pyridin-3-yl)-5-fluoro-pyrimidin-4-yl]amino]-N-ethyl-1-hydroxy-cyclohexanecarboxamide] | – | – | EC50 ([1]; Influenza A virus, PR/8, mean all, A/PR/8/34 influenza virus replication, bDNA, read-out: EC50): < 5 µM; IC50 ([2]; Influenza A virus, PR/8, MDCK, mean all, A/PR/8/34 infected MDCK cells, cell protection (CPE), read-out: IC50): < 5 µM
COCCNC(=O)[C@@H]1CCC[C@H](Nc2nc(-c3c[nH]c4ncc(Cl)cc34)ncc2F)C1 [Compound 789] | – | – | EC50 [1, 11]: < 5 µM; IC50 ([2]; read-out: IC50): < 5 µM
O=c1[nH]c(=O)n([C@@H]2CCC[C@H](Nc3nc(-c4c[nH]c5ncc(Cl)cc45)ncc3F)C2)o1 [Compound 796] | – | – | EC50 [1, 11]: < 5 µM; IC50 ([2]; read-out: IC50): < 5 µM
O=c1[nH]c(=O)n([C@H]2CCC[C@H](Nc3nc(-c4c[nH]c5ncc(Cl)cc45)ncc3F)C2)o1 [Compound 798] | – | – | EC50 [1, 11]: < 5 µM; IC50 ([2]; read-out: IC50): < 5 µM
